Reference: patent US5679695A, “Aryl and heteroaryl compounds having anti-retrovirus activity” (The University of Connecticut, priority 1995, dated 1997)
Values joined by “and” are separate entries in the source; they are usually repeats but may differ in a detail not shown here. Identical values can stand only once. Like-named read-outs stand apart in the source and are kept apart here.

Tests used:
HIV-1 = test: microbe, parasite or virus in culture; type: cell-based; conditions: for viability at 17.9 µM: 1.79 × 10^-5 Molar
Procedure: (§1) Another assay for testing the efficacy of the compounds is the procedure* used in the National Cancer Institute's test for agents active against Human Immunodeficiency Virus (HIV). It is designed to detect agents acting at any stage of the virus reproductive cycle. The assay basically involves the killing of T4 lymphocytes by HIV. Small amounts of HIV are added to cells, and a complete cycle of virus reproduction is necessary to obtain the required cell killing. Agents that interact with virions, cells, or virus gene-products to interfere with viral activities will protect cells from cytolysis. The system is automated in several features to accommodate large numbers of candidate agents and is generally designed to detect anti-HIV activity. However, compounds that degenerate, or are rapidly metabolized in the culture conditions may not show activity in this screen. All tests are compared with at least one positive (e.g., AZT-treated) control done at the same time under identical conditions.
(§2) * Weislow. O. W., Kiser, R., Fine, D., Bader, J., Shoemaker, R. H., Boyd, M. R.: New soluble-formazan assay for HIV-1 cytopathic effects: application to high-flux screening of synthetic and natural products for AIDS-antiviral activity. J. Natl. Cancer Inst. 81:577-586, 1989.
(§3) 1. The Candidate agent is dissolved in dimethyl sulfoxide (unless otherwise instructed) then diluted 1:100 in cell culture medium before preparing serial half-log10 dilutions. T4 lymphocytes (CEM cell line) are added and after a brief interval HIV-1 added, resulting in a 1:200 final dilution of the compound. Uninfected cells with the compound serve as a toxicity control, and infected and uninfected cells without compound serve as basic controls.
(§4) 2. Cultures are incubated at 37° in a 5% carbon dioxide atmosphere for 6 days.
(§5) 3. The tetrazolium salt, XTT, is added to all wells, and cultures are incubated to allow formazan color development by viable cells.
(§6) 4. Individual wells are analyzed spectrophotometrically to quantitate formazan production, and in addition are viewed microscopically for detection of viable cells and confirmation of protective activity.
(§7) 5. Drug-treated virus-infected cells are compared with drug-treated noninfected cells and with other appropriate controls (untreated infected and untreated noninfected: cells, drug-containing wells without cells, etc.) on the same plate.
(§8) 6. Data are reviewed in comparison with other tests done at the same time and a determination about activity is made.

CEM-Z = test: XTT toxicity control, uninfected culture, CEM-Z; type: cell-based
Procedure: as §1, §2, §3, §4, §5, §6, §7, §8

[1] = Storage in a clear glass bottle; type: physicochemical; conditions: several weeks of storage in a clear glass bottle

**Q.** Which results are given for `O=[N+]([O-])c1ccccc1S(=O)(=O)c1ccccc1` [Compound 1, 1-Nitro-2-(phenylsulfonyl)benzene]?
**A.** Conclusion (HIV-1; CEM-V): ACTIVE; Infected culture response (HIV-1; CEM-V, 1.79 × 10^-6 Molar, 1.79 µM): 9.3%; Infected culture response (HIV-1; CEM-V, 1.79 × 10^-7 Molar, 0.179 µM): 8.7%; Infected culture response (HIV-1; CEM-V, 1.89 × 10^-4 Molar, 189 µM): 87.3%; Infected culture response (HIV-1; CEM-V, 1.89 × 10^-5 Molar, 18.9 µM): 110.5%; Infected culture response (HIV-1; CEM-V, 1.89 × 10^-6 Molar, 1.89 µM): 11.4%; Infected culture response (HIV-1; CEM-V, 1.90 × 10^-7 Molar, 0.19 µM): 12.1%; Infected culture response (HIV-1; CEM-V, 5.66 × 10^-6 Molar, 5.66 µM): 36.6%; Infected culture response (HIV-1; CEM-V, 5.67 × 10^-7 Molar, 0.567 µM): 8.3%; Infected culture response (HIV-1; CEM-V, 5.68 × 10^-8 Molar, 0.0568 µM): 9.4%; Infected culture response (HIV-1; CEM-V, 5.98 × 10^-5 Molar, 59.8 µM): 95.2%; Infected culture response (HIV-1; CEM-V, 5.99 × 10^-6 Molar, 5.99 µM): 65.3% and 90.9%; Infected culture response (HIV-1; CEM-V, 6.00 × 10^-7 Molar, 0.6 µM): 8.3%; Infected culture response (HIV-1; CEM-V, 6.01 × 10^-8 Molar, 0.0601 µM): 8.7%; Conclusion (HIV-1; CEM-Z): ACTIVE; Infected culture response (HIV-1; CEM-Z, 1.79 × 10^-6 Molar, 1.79 µM): 47.1% and 26.4%; Infected culture response (HIV-1; CEM-Z, 5.65 × 10^-5 Molar, 56.5 µM): 93.1%; Infected culture response (HIV-1; CEM-Z, 5.66 × 10^-6 Molar, 5.66 µM): 58.3%; viability at 17.9 µM (HIV-1; Human immunodeficiency virus 1, CEM-V, read-out: Infected culture response): 92.2%; viability at 1.79 µM (HIV-1; Human immunodeficiency virus 1, CEM-V, 1.79 × 10^-6 Molar, read-out: Infected culture response): 8%; viability at 0.179 µM (HIV-1; Human immunodeficiency virus 1, CEM-V, 1.79 × 10^-7 Molar, read-out: Infected culture response): 10.3%; viability at 189 µM (HIV-1; Human immunodeficiency virus 1, CEM-V, 1.89 × 10^-4 Molar, read-out: Infected culture response): 86%; viability at 18.9 µM (HIV-1; Human immunodeficiency virus 1, CEM-V, 1.89 × 10^-5 Molar, read-out: Infected culture response): 100%; viability at 1.89 µM (HIV-1; Human immunodeficiency virus 1, CEM-V, 1.89 × 10^-6 Molar, read-out: Infected culture response): 18.2%; viability at 0.19 µM (HIV-1; Human immunodeficiency virus 1, CEM-V, 1.90 × 10^-7 Molar, read-out: Infected culture response): 14%; viability at 5.66 µM (HIV-1; Human immunodeficiency virus 1, CEM-V, 5.66 × 10^-6 Molar, read-out: Infected culture response): 31.1%; viability at 0.567 µM (HIV-1; Human immunodeficiency virus 1, CEM-V, 5.67 × 10^-7 Molar, read-out: Infected culture response): 10.6%; viability at 0.0568 µM (HIV-1; Human immunodeficiency virus 1, CEM-V, 5.68 × 10^-8 Molar, read-out: Infected culture response): 10.1%; viability at 59.8 µM (HIV-1; Human immunodeficiency virus 1, CEM-V, 5.98 × 10^-5 Molar, read-out: Infected culture response): 79.7%; viability at 0.6 µM (HIV-1; Human immunodeficiency virus 1, CEM-V, 6.00 × 10^-7 Molar, read-out: Infected culture response): 15.5%; viability at 0.0601 µM (HIV-1; Human immunodeficiency virus 1, CEM-V, 6.01 × 10^-8 Molar, read-out: Infected culture response): 14.7%; viability at 1.79 µM (HIV-1; Human immunodeficiency virus 1, CEM-V, dose printed 1.79 × 10^-6 Molar in the line between 5.66 × 10^-6 and 5.65 × 10^-5, read-out: Infected culture response): 53.1%; viability at 17.9 µM (HIV-1; Human immunodeficiency virus 1, CEM-Z, read-out: Infected culture response): 85.7%; viability at 56.5 µM (HIV-1; Human immunodeficiency virus 1, CEM-Z, 5.65 × 10^-5 Molar, read-out: Infected culture response): 92.3%; viability at 5.66 µM (HIV-1; Human immunodeficiency virus 1, CEM-Z, 5.66 × 10^-6 Molar, read-out: Infected culture response): 74.5%; viability at 1.79 µM (HIV-1; Human immunodeficiency virus 1, CEM-Z, dose printed 1.79 × 10^-6 Molar in the line between 5.66 × 10^-6 and 5.65 × 10^-5, read-out: Infected culture response): 91.3%; Uninfected culture response (CEM-Z; 1.78 × 10^-4 Molar, 178 µM): 72.1%; Uninfected culture response (CEM-Z; 1.79 × 10^-5 Molar, 17.9 µM): 103.0%; Uninfected culture response (CEM-Z; 1.79 × 10^-6 Molar, 1.79 µM): 99.7%; Uninfected culture response (CEM-Z; 1.79 × 10^-7 Molar, 0.179 µM): 102.5%; Uninfected culture response (CEM-Z; 5.65 × 10^-5 Molar, 56.5 µM): 101.8%; Uninfected culture response (CEM-Z; 5.66 × 10^-6 Molar, 5.66 µM): 100.0%; Uninfected culture response (CEM-Z; 5.67 × 10^-7 Molar, 0.567 µM): 99.8%; Uninfected culture response (CEM-Z; 5.68 × 10^-8 Molar, 0.0568 µM): 104.3%; IC50 (CEM-Z; uninfected culture (toxicity)): > 178 µM

**Q.** For `Cc1ccc(S(=O)(=O)c2ccccc2[N+](=O)[O-])cc1` [Compound 2, 1-(4-Methylphenylsulfonyl)-2-nitrobenzene], which “colour change on storage” value [1] is on record?
**A.** turned light green
